IC50 data for four compounds are collected here from patent US7687640B2, “Cinnamide compound” (Eisai R&D Management Co., Ltd., priority 2004, dated 2010).

In the assay the test system is Aβ42 production. Kind of assay: Quantification of Aβ peptide (Aβx-42 ELISA) in neuronal culture from rat fetus brain. Format: cell-based. The note with it: primary neuronal culture from cerebral cortices of embryonic day 18 Wistar rat; compound added on day 4 of culture, incubation for 3 days; Aβx-42 in medium by ELISA, % of CTRL; read-out: Effect to Reduce Aβ42 Production IC50. The procedure:
Quantification of Aβ Peptide in Neuronal Culture from Rat Fetus Brain (1)
Primary neuronal cultures were prepared from cerebral cortices from embryonic day 18 Wistar rat (Charles River Japan, Yokohama, Japan). The embryos were aseptically removed from a pregnant rat under ether anesthesia. The brain was isolated from the embryo, and immersed in ice-cold L-15 medium (for example, Invitrogen Corp. Cat #11415-064, Carlsbad, Calif., USA, or SIGMA L1518, St. Louis. MO, USA). The cerebral cortex was collected under a stereoscopic microscope from the brain. The cerebral cortex fragments collected were subjected to enzyme treatment in an enzyme solution containing 0.25% trypsin (for example, Invitrogen Corp., Cat #15050-065, Carlsbad, Calif., USA) and 0.01% DNase (for example, Sigma D5025, St. Louis. MO, USA) at 37 C for 30 minutes to allow for cell dispersion. The enzyme reaction was terminated by addition of same volume of heat-inactivated horse serum. After centrifugation at 1500 rpm for 5 minutes, the supernatant was removed and 5-10 ml of medium was added to the cell pellet. Neurobasal Medium™ (Invitrogen Corp., Carlsbad, Calif., USA) supplemented with 2% B-27 supplement (Invitrogen Corp., Carlsbad, Calif., USA), 25 μM 2-mercaptoethanol (2-ME, WAKO, 139-06861, Osaka, Japan), 0.5 mM L-glutamine (for example, Invitrogen Corp., Cat # 25030-081, Carlsbad, Calif., USA), and 1% antibiotics-antimycotics (Invitrogen Corp., Cat # 15240-062, Carlsbad, Calif., USA) was used as the culture medium (Neurobasal/B27/2-ME). At the compound evaluation, the medium of the same composition not to add 2-ME alone (Neurobasal/B27) was used. The cell pellet was triturated by mild pipetting. Remaining cell pellet was removed by filtering through a 40-μm nylon mesh (Cell Strainer, Cat # 35-2340, Becton Dickinson Labware, Franklin Lakes, N.J., USA) and a neuronal cell suspension was obtained. The neuronal cell suspension was diluted with the Neurobasal/B27/2-ME medium and then plated in a volume of 100 μl/well to obtain an initial cell density of 5×10^5 cells/cm^2 in a 96-well polystyrene plate pre-coated with poly-L or D-lysine (for example, Falcon MICROTEST Tissue culture plate 96 well flat bottom with low evaporation lid (Cat # 35-3075, Becton Dickinson Labware, Franklin Lakes, N.J., USA) coated with poly-L-lysine using the method shown below, or BIOCOAT™ cell environments Poly-D-lysine cell ware 96-well plate, Cat # 35-6461, Becton Dickinson Labware, Franklin Lakes, N.J., USA). Poly-L-lysine coating was carried out as follows. Poly-L-lysine (SIGMA P2636, St. Louis, Mo., USA) solution at 100 μg/ml was prepared aseptically with 0.15 M Borate buffer (pH 8.5). The solution was added to a 96-well polystyrene […] at 50-100 μl/well and incubated at room temperature for one hour or more, or at 4 C overnight or longer. This was rinsed 4 or more times with sterile water, and then dried or rinsed with, for example, sterile PBS or medium, and used for plating cells. Cells were cultured for one day in an incubator of 5% CO2-95% air at 37 C, the entire amount of the medium was exchanged with fresh Neurobasal/B27/2-ME, and the cells were then cultured for further 3 days.
Drugs were added on day 4 of culture as follows. The entire amount of the medium was removed from culture well, and Neurobasal/B27 medium was added at 180 μl/well. The test compound dimethyl sulfoxide (hereinafter abbreviated as DMSO) solution was diluted with Neurobasal/B27 so than it would be 10-fold of the desired final concentration. A diluent was added at 20 μl/well and mixed well. The final concentration of DMSO was 1% or less. Only DMSO was added to the control group.
After incubation for 3 days, the entire amount of the medium was collected as ELISA sample. This was used without any dilution for Aβx-42 measurement, and diluted to 5-fold with the diluent supplied with ELISA kit for Aβx-40 measurement, before subjecting to respective ELISA assays. […]

For `COc1cc(/C=C2\CCCN(C3Cc4ccc(F)cc4C3)C2=O)ccc1-n1cnc(C)c1` [Example 991, (E)-1-[(2S) and (2R)-5-fluoroindan-2-yl]-3-[3-methoxy-4-(4-methyl-1H-imidazol-1-yl)benzylidene]piperidin-2-one], the IC50 was 60 nM. The figure for `COc1cc(/C=C2\CCCN(C3CCc4ccccc4C3)C2=O)ccc1-n1cnc(C)c1` (stereo not shown) [Example 1014, (E)-3-[3-methoxy-4-(4-methyl-1H-imidazol-1-yl)benzylidene]-1-[(2R and 2S)-1,2,3,4-tetrahydronaphthalen-2-yl]piperidin-2-one] is 60 nM; for `COc1cc(/C=C2\CCCN(C3CCOc4cc(F)ccc43)C2=O)ccc1-n1cnc(C)c1` [Example 1025, (E)-1-[(4R) and (4S)-7-fluorochroman-4-yl]-3-[3-methoxy-4-(4-methyl-1H-imidazol-1-yl)benzylidene]piperidin-2-one] it is 70 nM. Consider `COc1cc(/C=C2\CCCN(C3COc4ccccc4C3)C2=O)ccc1-n1cnc(C)c1` (stereo not shown) [Example 1027, (E)-1-[(3R and 3S)-chroman-3-yl]-3-[3-methoxy-4-(4-methyl-1H-imidazol-1-yl)benzylidene]piperidin-2-one], for which the 50% inhibitory concentration (IC50) was determined as 71 nM.
